Several values for one entry are separate records, joined by “and”; a condition that tells them apart may be missing. Identical values can stand only once.

This note sets out measurements from PubChem BioAssay AID1963834 (Molecular Pharmacology Branch, DTP, NCI, 2024).

The test system of the test is 873145-292-R-J1-PDC complex spheroid viability. The experiment in a line: Anticancer human tumor 873145-292-R-J1-PDC patient-derived renal clear cell carcinoma cell line growth inhibition [POLQ]. Particulars: for viability, T/C: stronger effect = lower value; for IC50: curve of compound. As to the method:
Multicellular complex tumor spheroid response to Polymerase (POL) inhibitors (novobiocin, ART-558, RP6685) in combination with a variety of drugs and investigational agents in selected tumor cell lines
The POL inhibitors (novobiocin, ART-558, and RP6685) were evaluated both individually and in combination with standard of care and investigational anticancer small molecules within a complex spheroid model of solid tumors. . Complex spheroids include a stromal component modeled by human endothelial cells (HUVEC) and fibroblasts modeled by human mesenchymal stem cells (MSCs). The concentration ranges selected for each drug and investigational agent were based upon clinically achievable concentrations if the clinical Cmax of the agent was known.
Compounds. The drugs and investigational agents: novobiocin (NSC847541), ART-558 (NSC835418), RP-6685 (NSC848927), peposertib (NSC802822), ceralasertib (NSC780249), elimusertib (NSC800525), camonsertib (NSC841442), AZD-1390 (NSC803789), olaparib (NSC753686), talazoparib (NSC767125), rucaparib (NSC756644), sotorasib (NSC818433), MRTX-1133 (NSC836407), SN-38 (NSC673596), topotecan (NSC609699), epotoside (NSC141540), doxorubicin (NSC123127), gemcitabine (NSC613327), 5-fluorouracil (NSC19893), paclitaxel (NSC125973), vemurafenib (NSC761431), MSA-2 (NSC828583), SN-011 (NSC837082), adavosertib (NSC754352), prexasertib (NSC758257), carboplatin (NSC241240) and oxaliplatin (NSC266046), were obtained from the National Cancer Institute (NCI) Developmental Therapeutics Program Chemical Repository (21). The FDA-approved anticancer drug set is available from the Developmental Therapeutics Program at https://dtp.cancer.gov/organization/dscb/obtaining/. […] The stock solutions were prepared in dimethyl sulfoxide (DMSO, Sigma-Aldrich, St. Louis, MO, cat. D2650), except for the platinum compounds which were prepared in saline (Quality Biological, Gaithersburg, MD, cat. 114-055-101), at 800-fold the tested concentration and stored at -70 degrees C prior to their use. All drugs and investigational agents were tested over a range starting from a high concentration at or near the clinical Cmax and decreasing in half-log increments. If the clinical Cmax for an agent had not been determined, the highest concentration tested was 10 microM, except for SN-38, which was tested at a high concentration of 1 microM.
Cell Culture. All cells were maintained in an incubator at 37 degrees C and 5% CO2 with 95% humidity. The PDC lines were cultured according to standard operating procedures established by the NCI PDMR (https://pdmr.cancer.gov). Table 3 of the manuscript, lists the cell lines along with the number of the three cell types plated to form the mct-spheroids and media for tumor cell growth. After thawing, all PDC lines, except 997537-175-T-J1-PDC and 415267-285-R-J2-PDC, were cultured in Matrigel-coated flasks prepared with a working solution of 1X Ham's F-12 nutrient mix, without supplementation (Thermo Fisher Scientific, cat. 11765054), 100 U/mL penicillin-streptomycin (Thermo Fisher Scientific, cat. 15140122), and 2.5% Matrigel (Corning Inc., Corning, NY, cat. 354248) for the first three passages. The two PDC lines 997537-175-T-J1-PDC and 415267-285-R-J2-PDC were cultured on uncoated flasks. The 857933-349-R-J2-PDC line was cultured in 6C/Colon 1B media containing advanced DMEM/F-12 (Thermo Fisher Scientific, cat. 12634028), 10 mM HEPES (Thermo Fisher Scientific, cat. 15630080), 1X GlutaMAX supplement (Thermo Fisher Scientific, cat. 35050061), 0.1 mg/mL primocin (InvivoGen, San Diego, CA, cat. ant-pm-2), 10% defined fetal bovine serum, heat inactivated (HyClone Laboratories Inc., Logan, UT, cat. SH30070.03HI), 50% L-WRN conditioned media (ATCC, cat. CRL-3276), 1.25 mM N-Acetyl-L-cysteine (Sigma-Aldrich, cat. A9165), 10 mM nicotinamide (Sigma-Aldrich, cat. N0636), 1X B-27 supplement (Thermo Fisher Scientific, cat. 17504044), 1X N-2 supplement (Thermo Fisher Scientific, cat. […]
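Also: spheroids exposed to compounds for 7 days before viability readout.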
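For viability, T/C in this document: luminescence signal used as surrogate for viable cell content.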

As for `C=CC(=O)N1CCN(c2nc(=O)n(-c3c(C)ccnc3C(C)C)c3nc(-c4c(O)cccc4F)c(F)cc23)C(C)C1` (stereo not given), the IC50 – broadly, the concentration at which inhibition is half-maximal – was above 10 µM. For the same compound, the viability, T/C (commonly the result in the treated group divided by that in the control group, in per cent) (compound 0.0316 µM) is 98.3% and 103% and 94.9%. The viability, T/C (compound 0.1 µM) was 99.5% and 99.4% and 98.3%. For the same compound, where the note is “compound 0.316 µM”, the viability, T/C is 107% and 125% and 109%. Further, the viability, T/C (compound 1 µM) is 118% and 113% (2×). Also, the viability, T/C (compound 3.16 µM) was 137% and 134% and 116%. Further, the viability, T/C (compound 10 µM) was 121% and 145% and 124%.

As to `C=CCn1c(=O)c2cnc(Nc3ccc(N4CCN(C)CC4)cc3)nc2n1-c1cccc(C(C)(C)O)n1`, the IC50 is above 1 µM. In addition, the viability, T/C (compound 0.00316 µM) was 106% and 97.8% and 112%. For the same compound, the viability, T/C (compound 0.01 µM) was 95.9% and 105% and 90.5%. In addition, under “compound 0.0316 µM”, the viability, T/C is 104% and 92.5% and 97.3%. Also, the viability, T/C (compound 0.1 µM) was 101% and 97.8% and 97.9%. Moreover, the viability, T/C (compound 0.316 µM) is 76.4% and 84.9% and 85.7%. The viability, T/C (compound 1 µM) was 74.7% and 77.3% and 80%.

As for `CC(=O)O[C@H]1C(=O)[C@@]2(C)[C@H]([C@H](OC(=O)c3ccccc3)[C@]3(O)C[C@H](OC(=O)[C@H](O)[C@@H](NC(=O)c4ccccc4)c4ccccc4)C(C)=C1C3(C)C)[C@]1(OC(C)=O)CO[C@@H]1C[C@@H]2O`, the IC50 was above 3 µM. The viability, T/C (compound 0.00949 µM) was 79.4% and 83.2% and 84.7%. For the same compound, the viability, T/C (compound 0.03 µM) is 83.6% and 72.1% and 70.3%. Further, for the setting “compound 0.0949 µM”, the viability, T/C is 74% and 72.5% and 60.7%. Also, where the note is “compound 0.3 µM”, the viability, T/C is 70.2% and 65.1% and 65.8%. For the same compound, the viability, T/C (compound 0.949 µM) was 69.9% and 66.2% and 67.9%. Further, for the setting “compound 3 µM”, the viability, T/C is 63.5% and 72.9% and 57.8%.

`CC(C)n1c(=O)n(C)c2cnc3cc(F)c(-c4ccc(OCCCN5CCCCC5)nc4)cc3c21`: the IC50 was above 10 µM. For the setting “compound 0.0316 µM”, the viability, T/C was 97.8% and 99.3% and 112%. Besides, for the setting “compound 0.1 µM”, the viability, T/C was 103% and 100% and 93.3%. Moreover, under “compound 0.316 µM”, the viability, T/C is 94% and 101% and 112%. Further, the viability, T/C (compound 1 µM) was 92.8% and 108% and 100%. The viability, T/C (compound 3.16 µM) was 94.8% (2×) and 96.1%. The viability, T/C (compound 10 µM) was 77.7% and 95.8% and 91.3%.

As for `CC1COCCN1c1cc(-c2ccnn2C)c2ccnc(-c3ccn[nH]3)c2n1` (stereo not given), the IC50 is 1.21 µM and 1.2 µM and > 10 µM. Further, the viability, T/C (compound 0.0316 µM) was 88.9% and 83.1% and 97%. In addition, the viability, T/C (compound 0.1 µM) is 77.3% and 74.3% and 90%. For the same compound, for the setting “compound 0.316 µM”, the viability, T/C is 67.5% and 67.3% and 68.5%. The viability, T/C (compound 1 µM) is 51.8% and 50.8% and 56.1%. Further, the viability, T/C (compound 3.16 µM) is 40% and 41.9% and 52.3%. Moreover, the viability, T/C (compound 10 µM) was 39.3% and 41.4% and 57.8%.

Take `CC1COCCN1c1cc(C2(S(C)(=N)=O)CC2)nc(-c2ccnc3[nH]ccc23)n1` (stereo not given): the half-inhibitory concentration (IC50) was above 10 µM. The viability, T/C (compound 0.0316 µM) was 91.7% and 96% and 106%. The viability, T/C (compound 0.1 µM) was 97.2% and 92.7% and 96.5%. Besides, the viability, T/C (compound 0.316 µM) was 113% and 91.9% and 99.5%. Further, under “compound 1 µM”, the viability, T/C is 88.5% and 94.4% and 104%. The viability, T/C (compound 3.16 µM) is 81.9% and 85.5% and 81.5%. The viability, T/C (compound 10 µM) is 58% and 64.2% and 54.1%.

For the compound `CCCS(=O)(=O)Nc1ccc(F)c(C(=O)c2c[nH]c3ncc(-c4ccc(Cl)cc4)cc23)c1F`, the IC50 is above 10 µM. The viability, T/C (compound 0.0316 µM) was 113% and 104% and 102%. Besides, the viability, T/C (compound 0.1 µM) was 96.8% and 107% and 99.6%. Moreover, the viability, T/C (compound 0.316 µM) was 109% and 103% and 107%. Further, the viability, T/C (compound 1 µM) was 95.2% and 107% and 104%. Moreover, the viability, T/C (compound 3.16 µM) was 109% and 98.7% and 92.9%. Moreover, where the note is “compound 10 µM”, the viability, T/C is 76.7% and 72.3% and 60.6%.

`CC[C@@]1(O)C(=O)OCc2c1cc1n(c2=O)Cc2cc3c(CN(C)C)c(O)ccc3nc2-1`: the IC50 is > 0.1 µM and 0.0955 µM. Also, where the note is “compound 0.000316 µM”, the viability, T/C is 96.5% and 108% and 99.8%. Further, the viability, T/C (compound 0.001 µM) is 94.6% and 99.2% and 92.7%. In addition, the viability, T/C (compound 0.00316 µM) was 93.4% and 95.2% and 101%. The viability, T/C (compound 0.01 µM) is 92.8% and 107% and 103%. In addition, the viability, T/C (compound 0.0316 µM) was 84.9% and 95.7% and 77.4%. For the same compound, the viability, T/C (compound 0.1 µM) was 59.5% and 63.6% and 48.9%.

Regarding `CCc1c2c(nc3ccc(O)cc13)-c1cc3c(c(=O)n1C2)COC(=O)[C@]3(O)CC`, the IC50 is 0.0623 µM and 0.0993 µM and 0.0482 µM. Besides, the viability, T/C (compound 0.00316 µM) is 94.8% and 105% and 94%. The viability, T/C (compound 0.01 µM) is 77.7% and 88.3% and 80.5%. For the setting “compound 0.0316 µM”, the viability, T/C is 50.6% and 60% and 54.1%. Besides, the viability, T/C (compound 0.1 µM) was 49.2% and 52.5% and 41.1%. The viability, T/C (compound 0.316 µM) was 37.8% and 45.3% and 34.1%. Further, for the setting “compound 1 µM”, the viability, T/C is 30.3% and 37.3% and 29.6%.

For `CNCc1ccc(-c2[nH]c3cc(F)cc4c3c2CCNC4=O)cc1`, the IC50 is above 10 µM. Further, under “compound 0.0316 µM”, the viability, T/C is 108% and 93.3% and 101%. Moreover, the viability, T/C (compound 0.1 µM) was 101% and 96% and 102%. Also, for the setting “compound 0.316 µM”, the viability, T/C was 102% and 103% and 97.2%. Also, under “compound 1 µM”, the viability, T/C was 103% and 91.5% and 93.2%. For the same compound, under “compound 3.16 µM”, the viability, T/C was 94.7% and 95.1% and 93.3%. Where the note is “compound 10 µM”, the viability, T/C was 99.7% and 98% and 92.6%.
